# Data: PMC10047800, “Evaluation of Some Benzo[g]Quinazoline Derivatives as Antiviral Agents against Human Rotavirus Wa Strain: Biological Screening and Docking Study” (Current Issues in Molecular Biology, 2023)
# What was measured:
# Type in all cases: cell-based
# MA104 cells = assay: Cytotoxicity test (cell morphology, trypan blue viability): non-toxic dose on MA104 cells; settings: MA104 cell line, 72 h
# Description: (§1) It was carried out in accordance with the methods that were reported. In 1 mL of ethyl alcohol, 100 mg of sample was dissolved. A sample of 24 μL of 100× antibiotic–antimycotic mixture was added to 1 mL of sample to decontaminate it. Then, bi-fold dilutions were done to 100 μL of the original dissolved sample, and 100 μL of each dilution was inoculated in Hep-2, BGM, MA104, and CaCo-2 cell lines (obtained from the Holding Company for Biological Products & Vaccines VACSERA, Giza, Egypt) previously cultured in 96 multi well plates (Greiner-Bio one, Frickenhausen, Germany) to estimate the sample’s non-toxic dose. Inverted light microscope cell morphology and trypan blue dye exclusion cell viability tests were used for cytotoxicity assay.
# (§2) The Hep-2, BGM, MA104, and CaCo-2 cell cultures were each seeded at a concentration of 2 × 10^5 cells/mL and grown individually in 96-well tissue culture plates (Greiner-Bio one, Frickenhausen, Germany). After an incubation period of 24 h at 37 °C in an atmosphere containing 5% (v/v) CO2, cell monolayers were confluent. At this point, the media was withdrawn from each well and replaced with 100 μL of bi-fold dilutions of the sample examined that were prepared in Dulbecco’s Modified Eagle Medium (DMEM) (GIBCO BRL, Darmstadt, Germany). For the purpose of cell controls, 100 μL of DMEM containing no samples was added. All the cultures were kept in an atmosphere with 5% (v/v) CO2 that was humidified and incubated at 37 °C for a total of 72 h. […] Morphology shifts were observed and scored.
# (§3) Trypan blue dye was excluded from the experiment. […]. In 12-well tissue culture plates, Hep-2, BGM, MA104, and CaCo-2 cells (2 × 10^5 cells/mL) were cultivated (Greiner-Bio one, Frickenhausen, Germany). Following an incubation period of 24 h, 100 μL of tested sample dilutions, also known as bi-fold dilutions, were added to each well, and the results were examined in the same manner as described previously. After 72 h, the medium was removed, the cells were trypsinized, and an equal amount of an aqueous solution containing 0.4% (w/v) trypan blue dye was added. Counting the number of viable cells required phase contrast microscopes.
# BGM cells = assay: Cytotoxicity test (cell morphology, trypan blue viability): non-toxic dose on BGM cells; settings: BGM cell line, 72 h
# Description: as §1, §2, §3
# Hep-2 cells = assay: Cytotoxicity test (cell morphology, trypan blue viability): non-toxic dose on Hep-2 cells; settings: Hep-2 cell line, 72 h
# Description: as §1, §2, §3
# [1] = system: human rotavirus Wa strain; assay: Rotavirus titers by plaque assay after treatment with non-toxic doses; settings: virus 1 × 10^7 PFU/mL, Mean ± SD of three results
# Description: The Rotavirus Wa strain, at a concentration of 1 × 10^7 PFU/mL, was mixed with non-toxic dilutions in a volume of 100 μL. At a temperature of 37 °C and 10 μg/mL of trypsin, the rotavirus stocks became infectious after 30 min. The mixture was incubated for half an hour at 37 °C. The Hep 2, BGM, and MA104 cell lines were seeded into the wells of 12 multi-well plates and then injected with 100 μL (10-fold) dilutions of the treated and untreated rotavirus Wa strain after an hour of adsorption at 37 °C in an atmosphere containing 5% CO2-water vapor without shaking. The plates were bounced at regular intervals to prevent the cells from drying out. Following the adsorption step, 1 mL of a 2× media consisting of Dulbecco’s Modified Eagle Medium, Gibco-BRL (DMEM), and 1% agarose were added to each well. The mixture of medium and agarose was given an additional 0.5 μg/mL of trypsin so that it could test for the rotavirus Wa strain. The plates were kept in an incubator with an environment containing 5% CO2 and water vapor at 37 °C. After being fixed with formalin and stained with crystal violet at a concentration of 0.4%, the plaques were counted. After that, the PFU/mL viral titers were determined.
SMILES,Non-Toxic Doses (MA104 cells) [µg/mL],Non-Toxic Doses (BGM cells) [µg/mL],Non-Toxic Doses (Hep-2 cells) [µg/mL],% Reduction of Rotavirus Wa strain [1]
Cn1c(=S)[nH]c2cc3ccccc3cc2c1=O [Compound 1],65,60,65,–
CCn1c(=S)[nH]c2cc3ccccc3cc2c1=O [Compound 2],60,60,60,–
O=c1c2cc3ccccc3cc2[nH]c(=S)n1Cc1ccccc1 [Compound 3],75,60,70,–
COc1cccc(CSc2nc3cc4ccccc4cc3c(=O)n2C)c1 [Compound 4],55,50,55,–
CCn1c(SCc2cccc(OC)c2)nc2cc3ccccc3cc2c1=O [Compound 5],55,55,60,–
COc1cccc(CSc2nc3cc4ccccc4cc3c(=O)n2Cc2ccccc2)c1 [Compound 6],65,65,65,20% ± 4%
CCn1c(SCc2ccc(Cl)cc2)nc2cc3ccccc3cc2c1=O [Compound 7],60,60,60,–
O=c1c2cc3ccccc3cc2nc(SCc2ccc(Cl)cc2)n1Cc1ccccc1 [Compound 8],50,50,50,–
Cn1c(SCc2cccc(C#N)c2)nc2cc3ccccc3cc2c1=O [Compound 9],75,65,70,–
CCn1c(SCc2ccc(C#N)cc2)nc2cc3ccccc3cc2c1=O [Compound 10],55,50,50,–
N#Cc1ccc(CSc2nc3cc4ccccc4cc3c(=O)n2Cc2ccccc2)cc1 [Compound 11],65,65,65,–
CCn1c(SCCCN2C(=O)c3ccccc3C2=O)nc2cc3ccccc3cc2c1=O [Compound 12],30,25,30,–
O=C1c2ccccc2C(=O)N1CCCSc1nc2cc3ccccc3cc2c(=O)n1Cc1ccccc1 [Compound 13],50,40,45,20% ± 3%
Cn1c(NN)nc2cc3ccccc3cc2c1=O [Compound 14],60,55,60,–
CCn1c(NN)nc2cc3ccccc3cc2c1=O [Compound 15],55,55,55,–
NNc1nc2cc3ccccc3cc2c(=O)n1Cc1ccccc1 [Compound 16],60,60,65,–
